The source of these data is patent US20210052566A1, “METHODS FOR TREATING HEPATITIS B VIRUS (HBV) INFECTION” (INSERM (INSTITUT NATIONAL DE LA SANTÉ ET DE LA RECHERCHE …, priority 2018, published 2021).

One test relates to HBV genotype D. Put plainly: Anti-HBV properties in persistently infected dHepaRG cells, genotype D (post-infection treatment). Type of test: cell-based, Hepatitis B virus. The conditions noted are these: treated three times with 10 microM. The procedure: (§1) FIG. 1. Experimental outlines. Treatment schemes: (a) Treatments in pre-infection: dHepaRG cells were treated for 24 h (at day −1) with 100 nM of PreS1 peptide (PreS1-pep) or 10 μM of 1C8, or untreated (NT). At day 0, cells were inoculated with HBV (MOI=250) or with HDV (MOI=25) in the presence of drugs for 24 h. For the tenofovir control (TDF at 10 μM), cells were treated at day 1 and 4 post-infection. Supernatant and cells were harvested at day 7 post-infection. (b) Treatments in post-infection: dHepaRG cells were inoculated with HBV (MOI=250) or with HDV (MOI=25). At days 4, 7 and 9 post infection, cells were treated with TDF 10 μM, lamivudine (3TC) at 10 μM, 1C8 10 μM or untreated (NT). Supernatant and cells were harvested at day 11 postinfection.
FIG. 5. Anti-HBV properties of 1C8 in persistently infected dHepaRG cells: genotype D. Differentiated HepaRG were infected with HBV genotype D at a MOI of 100 vge/cell or HDV genotype 1 at a MOI of 10 vge/cell for 7 days before being treated trice every 2-3 days with indicated molecules at a concentration of 10 microM. A) Total DNA and RNA were extracted from cells and subjected to qPCR and RTqPCR to detect HBV cccDNA, total HBV RNA or pregenomic HBV RNA. B) HBs and HBe secreted antigens in supernatant were quantified by ELISA, whereas HBV DNA contained in virions was quantified by qPCR after viral nucleic acid extraction from supernatant. C) Intracellular HDV RNA was quantified by RTqPCR after total RNA extraction from cells. D) Viability was monitored in 1C8-treated (or control treated; puromycin is a positive toxic molecule) cells by CellTiter-Glo® luminescent cell viability assay. Results are the mean+SEM of n=3 performed with 3 different differentiations of HepaRG. Statistics were done by two-tailed Mann-Whitney test, with following significativity: *P<0.05, **P<0.01, ***P<0.001, ****P<0.0001. nd=not determined
Human liver progenitor HepaRG cells were cultured in Williams medium (ThermoFisher) supplemented with 10% of FBS (Perbio), Penicillin/Streptomycin (500 U/mL), glutamine (2 mM), hydrocortisone Upjohn (2.5 mg/L; Serb laboratory), insulin (5 mg/L; Sigma Aldrich). For the differentiation process 2% of DMSO was added to the above-described supplemented Williams medium. […] The multiplicity of infection (MOI; expressed as virus genome equivalent/cell) is indicated in the figure legends, but was of 100 vge/cell if not precised.
From cell culture supernatants, secreted HBe and HBs antigens were quantified by ELISA, using a chemiluminescence immunoassay kit (Autobio, China) following manufacturer's instructions. […]
A HBV standard was used for quantification of extracellular viral DNA and RNA. […]

The test system of another test is HDV genotype 1. Put plainly: Establishment of HDV infection in dHepaRG (treatment 24 h before and during inoculation). Type of test: cell-based, hepatitis delta virus. The following applies: 1C8 10 microM, Entry Inh. 100 nM. The procedure: as §1
FIG. 7. Effect of 1C8 on de novo establishment of ccDNA in dHepaRG (genotype D). […] B) HBs and HBe secreted antigens in supernatant were quantiUied by ELISA, whereas HBV DNA contained in virions was quantified by qPCR after viral nucleic acid extraction from supernatant. […] Statistics were done by two-tailed Mann-Whitney test, with following signiUicativity: *P<0.05, **P<0.01, ***P<0.001, ****P<0.0001. nd=not determined.

Test [1] addresses serine/arginine-rich splicing factor 10 (SRSF10) (human) (UniProt O75494). Put plainly: Strep-Tactin affinity purification of StrepTag-HBc complexes from hepatocyte nuclei, LC-MS/MS.

Sequence of serine/arginine-rich splicing factor 10 (SRSF10) (human) (O75494 whole entry): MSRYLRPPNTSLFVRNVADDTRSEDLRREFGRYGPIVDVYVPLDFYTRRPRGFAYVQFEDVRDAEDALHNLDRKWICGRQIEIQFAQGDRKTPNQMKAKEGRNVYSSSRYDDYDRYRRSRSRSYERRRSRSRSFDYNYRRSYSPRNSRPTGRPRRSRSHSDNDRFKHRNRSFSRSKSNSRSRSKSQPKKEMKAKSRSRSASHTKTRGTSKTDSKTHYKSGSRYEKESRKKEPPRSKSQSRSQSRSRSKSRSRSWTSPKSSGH
Sequence of StrepTag-HBc (core/capsid protein of HBV with a StrepTag at the N terminus) (P03146 whole entry): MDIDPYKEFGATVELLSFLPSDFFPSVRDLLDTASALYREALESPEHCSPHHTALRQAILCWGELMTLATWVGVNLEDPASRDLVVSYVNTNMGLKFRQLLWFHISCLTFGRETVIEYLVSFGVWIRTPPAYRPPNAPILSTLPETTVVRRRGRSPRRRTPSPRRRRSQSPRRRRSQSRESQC

Turning to `C[C@H](Cn1cnc2c(N)ncnc21)OCP(=O)(O)O` [tenofovir, reference compound], the “impact on accumulation of intracellular HBV RNA” value with HBV genotype D is “not capable to impact”. On to “Entry Inh.: PreS1 peptide, aa 2 to 48 of HBV PreS1 (SEQ ID No 1), N-terminal myristoyl, used for inhibiting HBV entry [reference compound]”, for which the “block of the establishment of HDV infections” value with HDV genotype 1 is “inhibited”. On to “StrepTag-HBc (core/capsid protein of HBV with a StrepTag at the N terminus)”, for which, in test [1], the enrichment in HBc complexes turned out to be 3000 times.
